Reference: ChEMBL document CHEMBL1151444, “Failure of current cefepime breakpoints to predict clinical outcomes of bacteremia caused by gram-negative organisms” (2007)

Experiments:
Type in all cases: functional
Klebsiella sp. = test: Antibacterial activity in Klebsiella sp. infected patient assessed as mortality after 28 days
Pseudomonas aeruginosa = test: Antibacterial activity in Pseudomonas aeruginosa infected patient assessed as mortality after 28 days
Escherichia coli = test: Antibacterial activity in Escherichia coli infected patient assessed as mortality after 28 days
Proteus sp. = test: Antibacterial activity in Proteus sp. infected patient assessed as mortality after 28 days
Serratia sp. = test: Antibacterial activity in Serratia sp. infected patient assessed as mortality after 28 days
Enterobacter sp. = test: Antibacterial activity in Enterobacter sp. infected patient assessed as mortality after 28 days

Compound: CO/N=C(\C(=O)N[C@@H]1C(=O)N2C(C(=O)[O-])=C(C[N+]3(C)CCCC3)CS[C@H]12)c1csc(N)n1 [CEFEPIME]
- Activity (Klebsiella sp.): 30.4%
- Activity (Pseudomonas aeruginosa): 39.1%
- Activity (Escherichia coli): 21.2%
- Activity (Proteus sp.): 25%
- Activity (Serratia sp.): 23.8%
- Activity (Enterobacter sp.): 21.7%
